ChEMBL document CHEMBL1133946, “An approach to the identification of potent inhibitors of influenza virus fusion using parallel synthesis methodology” (Bioorg Med Chem Lett, 2001)
Converted amounts (≈) assume the structure as drawn.

Columns and labels:
[1] = tested on: unidentified influenza virus; assay: Compound tested for inhibition of influenza virus infectivity in cell culture determined by plaque reduction assay;Inactive; type: functional, organism-based
[2] = Compound tested for inhibition of hemolysis; type: functional
[3] = tested on: unidentified influenza virus; assay: Cytotoxicity of compound was measured against Influenza virus;in range of 8-9; type: functional
[4] = tested on: unidentified influenza virus; assay: Cytotoxicity of compound was measured against Influenza virus; type: functional
[5] = tested on: unidentified influenza virus; assay: Compound tested for inhibition of influenza virus infectivity in cell culture determined by plaque reduction assay; type: functional, organism-based
[6] = unidentified influenza virus, read-out: CC50
[7] = unidentified influenza virus, read-out: EC50

SMILES	EC50 [1]	IC50 [2]	CC50 [3]	CC50 [4, 6]	EC50 [5, 7]	CC50 [4]	EC50 [5]
CC1(C)C[C@H](O)C[C@](C)(C/N=C(\S)c2cccc(Cl)c2)C1	Not Active	2.5 µg/mL (≈ 7.67 µM)	8 µg/mL (≈ 24.5 µM)	–	–	–	–
Cc1ccc(O)c(C(=O)NC[C@@]2(C)C[C@H](O)CC(C)(C)C2)c1	–	0.033 µg/mL (≈ 0.108 µM)	–	70 µg/mL (≈ 229 µM)	0.037 µg/mL (≈ 0.121 µM)	–	–
CC1(C)C[C@H](O)C[C@@](C)(CNC(=O)c2cc(Cl)ccc2O)C1 (stereo in doubt; 10b)	–	0.25 µg/mL (≈ 0.767 µM)	–	–	–	>100 µg/mL	0.13 µg/mL (≈ 0.399 µM)
C[C@@H]1CCC[C@@H]2C[C@@H](NC(=O)c3cc(Cl)c(N)cc3O)CCN21	–	0.44 µg/mL (≈ 1.3 µM)	–	> 100 µg/mL	2 µg/mL (≈ 5.92 µM)	–	–
CC1(C)C[C@H](O)C[C@@](C)(CNC(=S)c2cccc(Cl)c2)C1	–	0.047 µg/mL (≈ 0.144 µM)	–	20 µg/mL (≈ 61.4 µM)	0.02 µg/mL (≈ 0.0614 µM)	–	–
CC1(C)C[C@H](O)C[C@@](C)(CNC(=O)c2cc(Cl)ccc2O)C1 (stereo in doubt; 11b)	–	0.025 µg/mL (≈ 0.0767 µM)	–	80 µg/mL (≈ 246 µM)	–	–	0.03 µg/mL (≈ 0.0921 µM)
Cc1ccc(O)c(C(=O)NC[C@]2(C)C[C@H](O)CC(C)(C)C2)c1	–	0.15 µg/mL (≈ 0.491 µM)	–	50 µg/mL (≈ 164 µM)	0.136 µg/mL (≈ 0.445 µM)	–	–
